Laboratory results reported in patent publication US12378543B2, “Compositions for hemolysis and coagulation regulation and stabilization of extracellular vesicles” (STRECK LLC, priority 2017, dated 2025).

System: cell-free RNA (cfRNA)
Experiment: Total cfRNA in plasma after whole blood storage (Qubit RNA HS fluorometric analysis)
Conditions: preservative added singly on ACD-A background, 7 days at room temperature, FIG. 6
Text: Plasma was isolated and cfRNA extracted using a commercially available kit (Qiagen, QIAamp Circulating Nucleic Acid Isolation Kit). Resultant cfRNA was quantified using the Qubit RNA HS Assay (Invitrogen). Results are the mean with standard deviation from 3 healthy donors.
The working hypothesis for the container (e.g., blood collection tube) that comprises a composition of the disclosure was that cell-free RNA (cfRNA), including messenger RNA, micro-RNA, non-coding RNA, etc., is stable in blood plasma via encapsulation within extracellular vesicles (EVs). Thus, because aspects of the disclosure are directed to stabilizing draw-time concentrations of cfRNA, the goal was to maintain the initial concentration of EVs. […] In the experiments, the functional components of the RNAx BCT are the preservatives imidazolidinyl urea (IDU) and α-cyclodextrin. The experiments were designed to test whether each of the foregoing components acted singly (additive effect) or whether the combination provided an unexpected, more pronounced outcome (synergistic effect).
On the background of the basal anti-coagulant, ACD-A, each of the preservatives (i.e., IDU and α-cyclodextrin) was added singly (at the same concentration utilized in the RNAx BCT) or together. […]

OC[C@H]1O[C@@H]2O[C@H]3[C@H](O)[C@@H](O)[C@@H](O[C@H]4[C@H](O)[C@@H](O)[C@@H](O[C@H]5[C@H](O)[C@@H](O)[C@@H](O[C@H]6[C@H](O)[C@@H](O)[C@@H](O[C@H]7[C@H](O)[C@@H](O)[C@@H](O[C@H]1[C@H](O)[C@H]2O)O[C@@H]7CO)O[C@@H]6CO)O[C@@H]5CO)O[C@@H]4CO)O[C@@H]3CO [α-cyclodextrin]
effect on increases in total cfRNA levels (in words): did limit increases in levels of cfRNA
